Assay results reported in patent US20250340551A1, “SMALL MOLECULE MODULATORS OF STAT6” (Gilead Sciences, Inc., priority 2024, published 2025).

Key:
[1] = system: Eotaxin-3 (CCL26) release in human whole blood stimulated with IL-4; experiment: Human whole blood eotaxin-3 assay (IL-4 stimulated, Eotaxin-3 release); assay type: cell-based; conditions: for Emax / EC50: Homo sapiens; for Emax: 48 h; for EC50: Hec50, 48 h
Summary of the method: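 Lithium-heparin blood preincubated 2 h at 37° C with 4-fold compound dilutions (0.5% DMSO, triplicates), then stimulated with 400 pM recombinant human IL-4 for 48 h. Eotaxin-3 in plasma supernatant measured by MSD immunoassay.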

human STAT6 = human STAT6 (Homo sapiens (Human), UniProt P42226); experiment: Surface plasmon resonance assay (Biacore 8K, binding to immobilized STAT6); conditions: human STAT6 aa122-658, N-terminal His-tag, CM5 chip, 25° C.; geometric mean; read-out: STAT6 SPR Kd
human STAT6, sequence (P42226 122-658): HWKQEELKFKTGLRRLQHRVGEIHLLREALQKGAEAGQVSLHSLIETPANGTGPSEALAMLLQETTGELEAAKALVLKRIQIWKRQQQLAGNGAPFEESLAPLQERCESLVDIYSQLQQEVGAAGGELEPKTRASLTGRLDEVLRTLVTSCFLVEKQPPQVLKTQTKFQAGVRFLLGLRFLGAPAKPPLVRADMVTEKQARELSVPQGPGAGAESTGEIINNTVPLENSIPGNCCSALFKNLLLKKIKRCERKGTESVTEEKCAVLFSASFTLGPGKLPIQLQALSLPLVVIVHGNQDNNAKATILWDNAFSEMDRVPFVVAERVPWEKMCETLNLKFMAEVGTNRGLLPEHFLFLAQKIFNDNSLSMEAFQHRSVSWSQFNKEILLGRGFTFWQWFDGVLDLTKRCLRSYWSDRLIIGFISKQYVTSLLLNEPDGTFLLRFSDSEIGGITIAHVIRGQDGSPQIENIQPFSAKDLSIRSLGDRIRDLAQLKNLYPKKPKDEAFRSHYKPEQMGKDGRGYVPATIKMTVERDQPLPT
Summary of the method: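 Run at 25° C with His-tagged STAT6 aa122-658 (insect-cell expressed) amine-coupled to a CM5 chip, reference-subtracted, in PBS-P+ with 2% DMSO. Multi-cycle kinetics: 60 sec. contact, up to 300 sec. dissociation. Affinity fitted from late report-point binding isotherms, with Rmax both free and fixed to theoretical 1:1.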

Compound	Kd (human STAT6)	EC50 [1]	Emax [1]	Eotaxin-3 Emax (%) ([1]; human whole blood, 400 pM recombinant human IL-4, 48 h, Emax provided for compounds with <80% Emax, geometric mean)
CN(C)C(=O)c1ccc(C2CCN(Cc3cc4c(-c5cnc(N)c(F)c5)ccnc4n3C)CC2)cc1 [Example 1k14, 4-[1-[[4-(6-Amino-5-fluoro-3-pyridyl)-1-methyl-pyrrolo[2,3-b]pyridin-2-yl]methyl]-4-piperidyl]-N,N-dimethyl-benzamide]	37.2 nM	–	65.6%	–
CNc1ccc(-c2ccnc3c2cc(CN2CCC(c4ccc(C(=O)N(C)C)cc4C)CC2)n3C)nn1 [Example 1p2, N,N,3-Trimethyl-4-[1-[[1-methyl-4-[6-(methylamino)pyridazin-3-yl]pyrrolo[2,3-b]pyridin-2-yl]methyl]-4-piperidyl]benzamide]	70.1 nM	14100 nM	–	–
CNc1ccc(-c2ccnc3c2cc([C@H](C)N2CCC(c4ccc(C(=O)N(C)C)cc4)CC2)n3C)c(C#N)n1 [Example 1af39, (S)-4-(1-(1-(4-(2-xyano-6-(methylamino)pyridin-3-yl)-1-methyl-1H-pyrrolo-[2,3-b]pyridin-2-yl)ethyl)piperidin-4-yl)-N,N-dimethylbenzamide]	32.7 nM	115 nM	–	–
CN(C)C(=O)c1ccc(C2CCN(Cc3cc4c(-c5ccc(N)c(C(=O)O)c5)ccnc4n3C)CC2)cc1 [Example 1k6, 2-Amino-5-[2-[[4-[4-(dimethylcarbamoyl)phenyl]-1-piperidyl]methyl]-1-methyl-pyrrolo[2,3-b]pyridin-4-yl]benzoic acid]	9.05 nM	–	57%	–
C[C@H](c1cc2c(-c3ccc(N)cn3)ccnc2n1C)N1CC=C(c2ccc(C(=O)N(C)C)cc2)CC1 [Example 1af20, (R)-4-(1-(1-(4-(5-aminopyridin-2-yl)-1-methyl-1H-pyrrolo[2,3-b]pyridin-2-yl)ethyl)-1,2,3,6-tetrahydropyridin-4-yl)-N,N-dimethylbenzamide]	40.4 nM	–	76.7%	–
CNc1ccc(-c2ccnc3c2cc([C@@H](C)N2CCC(c4ccc(C(=O)N(C)C)cc4)CC2)n3C)c(C#N)n1 [Example 1af40, (R)-4-(1-(1-(4-(2-cyano-6-(methyl-amino)pyridin-3-yl)-1-methyl-1H-pyrrolo[2,3-b]pyridin-2-yl)ethyl)piperidin-4-yl)-N,N-dimethylbenzamide]	2190 nM	44400 nM	–	–
CNc1ccc(-c2ccnc3c2cc([C@H](C)N2CCC(c4ccc(C(=O)N(C)C)cc4)CC2)n3C)nc1 [Example 1o24, (S)—N,N-dimethyl-4-(1-(1-(1-methyl-4-(5-(methylamino)pyridin-2-yl)-1H-pyrrolo[2,3-b]pyridin-2-yl)ethyl)piperidin-4-yl)benzamide]	31.2 nM	444 nM	–	–
4-[1-[[4-(6-Amino-2-methoxy-3-pyridyl)-1-methyl-pyrrolo[2,3-b]pyridin-2-yl]methyl]-4-piperidyl]-N,N-bis(trideuteriomethyl)benzamide [Example 1k44]	25.6 nM	–	–	77%
CNc1ccc(-c2ccnc3c2cc(CN2CCC(c4ccc(C(=O)N(C)C)cc4)CC2)n3C)nn1 [Example 1k71, N,N-Dimethyl-4-[1-[[1-methyl-4-[6-(methylamino)pyridazin-3-yl]pyrrolo[2,3-b]pyridin-2-yl]methyl]-4-piperidyl]benzamide]	22.6 nM	–	78.8%	–
COc1nc(N)ccc1-c1ccnc2c1cc(CN1CCC(c3ccc(C(=O)N(C)C)cc3)CC1)n2C [Example 1k22, 4-[1-[[4-(6-Amino-2-methoxy-3-pyridyl)-1-methyl-pyrrolo[2,3-b]pyridin-2-yl]methyl]-4-piperidyl]-N,N-dimethyl-benzamide]	22.3 nM	1490 nM	–	–
CN(C)C(=O)c1ccc(C2CCN(Cc3cc4c(-c5ccc(N)cn5)ccnc4n3C)CC2)cc1 [Example 1k66, 4-(1-((4-(5-Aminopyridin-2-yl)-1-methyl-1H-pyrrolo[2,3-b]pyridin-2-yl)methyl)piperidin-4-yl)-N,N-dimethylbenzamide]	18.8 nM	6620 nM	–	–
[2H]C([2H])([2H])N(C(=O)c1cnc(C2=CCN(Cc3cc4c(-c5cnc(N)cc5F)ccnc4n3C)CC2)nc1)C([2H])([2H])[2H] [Example 1z11, 2-(1-((4-(6-amino-4-fluoropyridin-3-yl)-1-methyl-1H-pyrrolo[2,3-b]pyridin-2-yl)methyl)-1,2,3,6-tetrahydropyridin-4-yl)-N,N-bis(methyl-d3)pyrimidine-5-carboxamide]	–	–	20 to 30%	–
CN(C)C(=O)c1ccc(C2=CCN(Cc3cc4c(-c5ccc(N)nn5)ccnc4n3C)CC2)c(Cl)c1 [Example 1af77, 4-(1-((4-(6-Aminopyridazin-3-yl)-1-methyl-1H-pyrrolo[2,3-b]pyridin-2-yl)methyl)-1,2,3,6-tetrahydropyridin-4-yl)-3-chloro-N,N-dimethylbenzamide]	–	871 nM	–	–
CN(C)C(=O)c1ccc(C2=CCN(Cc3cc4c(-c5ccc(N)nc5)ccnc4n3C)CC2)nn1 [Example 1z3, 6-(1-((4-(6-aminopyridin-3-yl)-1-methyl-1H-pyrrolo[2,3-b]pyridin-2-yl)methyl)-1,2,3,6-tetrahydropyridin-4-yl)-N,N-dimethylpyridazine-3-carboxamide]	–	–	< 20%	–
Cc1cc(C(=O)N(C)C)cc(F)c1C1=CCN([C@@H](C)c2cc3c(-c4ccc(N)nn4)ccnc3n2C)CC1 [Example 1af80, (S)-4-(1-(1-(4-(6-aminopyridazin-3-yl)-1-methyl-1H-pyrrolo[2,3-b]pyridin-2-yl)ethyl)-1,2,3,6-tetrahydropyridin-4-yl)-3-fluoro-N,N,5-trimethylbenzamide]	–	11.4 nM	–	–
CNc1ccc(-c2ccnc3c2cc(CN2CC[C@@H](c4ccc(C(=O)N(C)C)cc4)C[C@@H]2C)n3C)nc1 (single isomer, unassigned) [Example 1o28]	–	–	< 20%	–
CNc1ccc(-c2ccnc3c2cc(CN2CC[C@H](c4ccc(C(=O)N(C)C)cc4)C[C@H]2C)n3C)nc1 (single isomer, unassigned) [Example 1o29]	–	–	< 20%	–
[2H]C([2H])([2H])N(C(=O)c1cnc(C2=CCN(Cc3cc4c(-c5ccc(N)nc5)ccnc4n3C)CC2)cn1)C([2H])([2H])[2H] [Example 1af79, 5-(1-((4-(6-Aminopyridin-3-yl)-1-methyl-1H-pyrrolo[2,3-b]pyridin-2-yl)methyl)-1,2,3,6-tetrahydropyridin-4-yl)-N,N-bis(methyl-d3)pyrazine-2-carboxamide]	–	–	20 to 30%	–

Now from value to compound, other results behind:

Kd (human STAT6)	EC50 [1]	Compound	Emax [1]	Eotaxin-3 Emax (%) ([1]; human whole blood, 400 pM recombinant human IL-4, 48 h, Emax provided for compounds with <80% Emax, geometric mean)
18.4 nM	138 nM	C[C@@H]1C[C@H](c2ccc(C(=O)N(C)C)cc2)CCN1Cc1cc2c(-c3ccc(N)nc3C#N)ccnc2n1C (single isomer, unassigned) [Example 1q4]	–	–
18.1 nM	370 nM	C[C@@H]1C[C@H](c2ccc(C(=O)N(C)C)cc2)CCN1Cc1cc2c(-c3ccc(N)cn3)ccnc2n1C (single isomer, unassigned) [Example 1q1]	–	–
40.4 nM	205 nM	CNc1ccc(-c2ccnc3c2cc(CN2CC=C(c4c(C)cc(C(=O)N(C)C)cc4C)CC2)n3C)cn1 [Example 1s10, N,N,3,5-Tetramethyl-4-[1-[[1-methyl-4-[6-(methylamino)-3-pyridyl]pyrrolo[2,3-b]pyridin-2-yl]methyl]-3,6-dihydro-2H-pyridin-4-yl]benzamide]	–	–
35.8 nM	–	CNc1ccc(-c2ccnc3c2cc(CN2CCC(c4ccc(C(=O)N(C)C)cc4)CC2=O)n3C)cn1 (stereo not drawn) [Example 1s2, N,N-Dimethyl-4-[1-[[1-methyl-4-[6-(methylamino)-3-pyridyl]pyrrolo[2,3-b]pyridin-2-yl]methyl]-2-oxo-4-piperidyl]benzamide]	54.4%	–
–	38.6 nM	CNc1ccc(-c2ccnc3c2cc(C(C)N2CC=C(c4c(C)cc(C(=O)N(C)C)cc4F)CC2)n3C)cn1 (stereo not drawn) [Example 1z36, 3-fluoro-N,N,5-trimethyl-4-(1-(1-(1-methyl-4-(6-(methylamino)pyridin-3-yl)-1H-pyrrolo[2,3-b]pyridin-2-yl)ethyl)-1,2,3,6-tetrahydropyridin-4-yl)benzamide]	–	–
–	473 nM	CN(C)C(=O)c1ccc(C2=CCN(Cc3cc4c(-c5ccc(N)nc5)ccnc4n3C)CC2)c(C#N)c1 [Example 1z10, 4-(1-((4-(6-aminopyridin-3-yl)-1-methyl-1H-pyrrolo[2,3-b]pyridin-2-yl)methyl)-1,2,3,6-tetrahydropyridin-4-yl)-3-cyano-N,N-dimethylbenzamide]	–	–
–	1710 nM	CNc1ccc(-c2ccnc3c2cc(CN2CC=C(c4ccc(C(=O)N(C)C)cc4Cl)CC2)n3C)nn1 [Example 1p18, 3-Chloro-N,N-dimethyl-4-[1-[[1-methyl-4-[6-(methylamino)pyridazin-3-yl]pyrrolo[2,3-b]pyridin-2-yl]methyl]-3,6-dihydro-2H-pyridin-4-yl]benzamide]	–	–
–	39.5 nM	[2H]C([2H])([2H])N(C(=O)c1cc(C)c(C2=CCN([C@@H](C)c3cc4c(-c5ccc(NC)nn5)ccnc4n3C)CC2)c(F)c1)C([2H])([2H])[2H] [Example 1z44, (S)-3-fluoro-5-methyl-N,N-bis(methyl-d3)-4-(1-(1-(1-methyl-4-(6-(methylamino)-pyridazin-3-yl)-1H-pyrrolo[2,3-b]pyridin-2-yl)ethyl)-1,2,3,6-tetrahydropyridin-4-yl)benzamide]	–	–
–	10.2 nM	Cc1cc(C(=O)N(C)C)cc(F)c1C1=CCN([C@H](C)c2cc3c(-c4ccc(N)nc4)ccnc3n2C)CC1 [Example 1z30, (R)-4-(1-(1-(4-(6-aminopyridin-3-yl)-1-methyl-1H-pyrrolo[2,3-b]pyridin-2-yl)ethyl)-1,2,3,6-tetrahydropyridin-4-yl)-3-fluoro-N,N,5-trimethylbenzamide]	–	–
